Results on nine compounds are retold here after ChEMBL document CHEMBL3044687, “Microwave-assisted synthesis of some novel and potent antibacterial and antifungal compounds with biological screening” (2012).

Common to all, as to format: functional
Common to all, as to conditions: read-out: DIZ

Test [1] has as its system Staphylococcus aureus. The test can be described thus: Antibacterial activity against Staphylococcus aureus at 100 ug/ml after 24 hr by disk diffusion method. Background: Agar diffusion results depend on both activity and mobility in agar.
The subject of test [2] is Staphylococcus aureus. The test can be described thus: Antibacterial activity against Staphylococcus aureus at 50 ug/ml after 24 hr by disk diffusion method.
Test [3] concerns Bacillus subtilis. The test can be described thus: Antibacterial activity against Bacillus subtilis at 100 ug/ml after 24 hr by disk diffusion method.
In test [4] the test system is Bacillus subtilis. The test is described as follows: Antibacterial activity against Bacillus subtilis at 200 ug/ml after 24 hr by disk diffusion method.
For test [5], the system named is Bacillus subtilis. The test can be described thus: Antibacterial activity against Bacillus subtilis at 50 ug/ml after 24 hr by disk diffusion method.
Test [6] deals with Pseudomonas aeruginosa. The test is described as follows: Antibacterial activity against Pseudomonas aeruginosa at 100 ug/ml after 24 hr by disk diffusion method.
Test [7] relates to Pseudomonas aeruginosa. The test can be described thus: Antibacterial activity against Pseudomonas aeruginosa at 200 ug/ml after 24 hr by disk diffusion method.
In test [8] the test system is Pseudomonas aeruginosa. The test can be described thus: Antibacterial activity against Pseudomonas aeruginosa at 50 ug/ml after 24 hr by disk diffusion method.
Test [9] has as its system Escherichia coli. The test can be described thus: Antibacterial activity against Escherichia coli at 200 ug/ml after 24 hr by disk diffusion method.
In test [10] the test system is Escherichia coli. The test can be described thus: Antibacterial activity against Escherichia coli at 50 ug/ml after 24 hr by disk diffusion method.
The subject of test [11] is Escherichia coli. The test is described as follows: Antibacterial activity against Escherichia coli at 100 ug/ml after 24 hr by disk diffusion method.
Test [12] concerns Candida albicans. The test can be described thus: Antifungal activity against Candida albicans at 200 ug/ml after 48 hr by disk diffusion method.
Test [13] concerns Aspergillus niger. The test can be described thus: Antifungal activity against Aspergillus niger at 50 ug/ml after 48 hr by disk diffusion method.
Test [14] concerns Candida albicans. The test is described as follows: Antifungal activity against Candida albicans at 100 ug/ml after 48 hr by disk diffusion method.
The subject of test [15] is Candida albicans. The test is described as follows: Antifungal activity against Candida albicans at 50 ug/ml after 48 hr by disk diffusion method.
Test [16] relates to Staphylococcus aureus. The test is described as follows: Antibacterial activity against Staphylococcus aureus at 200 ug/ml after 24 hr by disk diffusion method.
Test [17] has as its system Aspergillus niger. The test can be described thus: Antifungal activity against Aspergillus niger at 200 ug/ml after 48 hr by disk diffusion method.
The test system of test [18] is Aspergillus niger. The test is described as follows: Antifungal activity against Aspergillus niger at 100 ug/ml after 48 hr by disk diffusion method.

For `CN1CCN(CN2C(=O)N(c3ccccc3)C(=O)C2(c2ccccc2)c2ccccc2)CC1`, the zone of inhibition at 100 µg/mL was 10 mm in the test with Staphylococcus aureus [1]; 5 mm in the test on Bacillus subtilis [3]; 6 mm in the test with Pseudomonas aeruginosa [6]; 13 mm in the test with Escherichia coli [11]; 13 mm with Candida albicans [14]; 12 mm in the test on Aspergillus niger [18]. In addition, the zone of inhibition at 50 µg/mL with Staphylococcus aureus [2] came out at 6 mm; in the test with Bacillus subtilis [5] it was 4 mm; in the test with Pseudomonas aeruginosa [8], 4 mm; in the test on Escherichia coli [10], 6 mm; in the test with Aspergillus niger [13], 11 mm; in the test with Candida albicans [15], 12 mm. The zone of inhibition at 200 µg/mL in the test with Bacillus subtilis [4] came to 14 mm; with Pseudomonas aeruginosa [7] it was 10 mm; in the test with Escherichia coli [9], 16 mm; with Candida albicans [12] it was 13 mm; in the test on Staphylococcus aureus [16], 18 mm; in the test on Aspergillus niger [17], 12 mm.
`O=C1N(c2ccccc2)C(=O)C(c2ccccc2)(c2ccccc2)N1Cn1nnc2ccccc21`: the zone of inhibition at 100 µg/mL came out at 10 mm in the test with Staphylococcus aureus [1]; 12 mm in the test with Bacillus subtilis [3]; 10 mm with Pseudomonas aeruginosa [6]; 8 mm in the test with Escherichia coli [11]; 12 mm in the test with Candida albicans [14]; 11 mm with Aspergillus niger [18]. The zone of inhibition at 50 µg/mL in the test with Staphylococcus aureus [2] was determined as 4 mm; in the test with Bacillus subtilis [5], 5 mm; with Pseudomonas aeruginosa [8], 6 mm; with Escherichia coli [10], 3 mm; in the test with Aspergillus niger [13] it was 11 mm; in the test on Candida albicans [15] it was 11 mm. The zone of inhibition at 200 µg/mL is 18 mm in the test with Bacillus subtilis [4]; 12 mm in the test on Pseudomonas aeruginosa [7]; 14 mm with Escherichia coli [9]; 13 mm with Candida albicans [12]; 14 mm in the test on Staphylococcus aureus [16]; 11 mm in the test with Aspergillus niger [17].
In the case of `O=C1N(c2ccccc2)C(=O)C(c2ccccc2)(c2ccccc2)N1Cn1ccnc1`, the zone of inhibition at 100 µg/mL in the test on Staphylococcus aureus [1] was found to be 9 mm; with Bacillus subtilis [3], 11 mm; with Pseudomonas aeruginosa [6], 9 mm; in the test on Escherichia coli [11] it was 14 mm; in the test on Candida albicans [14], 11 mm; with Aspergillus niger [18] it was 12 mm. Moreover, the zone of inhibition at 50 µg/mL came out at 4 mm with Staphylococcus aureus [2]; 5 mm in the test on Bacillus subtilis [5]; 5 mm in the test on Pseudomonas aeruginosa [8]; 5 mm in the test on Escherichia coli [10]; 10 mm in the test on Aspergillus niger [13]; 10 mm in the test with Candida albicans [15]. The zone of inhibition at 200 µg/mL was 13 mm in the test on Bacillus subtilis [4]; 18 mm in the test with Pseudomonas aeruginosa [7]; 19 mm with Escherichia coli [9]; 13 mm with Candida albicans [12]; 18 mm with Staphylococcus aureus [16]; 13 mm in the test with Aspergillus niger [17].
Take `O=C1N(c2ccccc2)C(=O)C(c2ccccc2)(c2ccccc2)N1Cn1cnc2ccccc21`: the zone of inhibition at 100 µg/mL in the test with Staphylococcus aureus [1] stood at 10 mm; in the test with Bacillus subtilis [3] it was 13 mm; in the test on Pseudomonas aeruginosa [6], 8 mm; in the test with Escherichia coli [11], 12 mm; with Candida albicans [14] it was 24 mm; in the test on Aspergillus niger [18], 19 mm. In addition, the zone of inhibition at 50 µg/mL with Staphylococcus aureus [2] came to 5 mm; with Bacillus subtilis [5], 5 mm; with Pseudomonas aeruginosa [8] it was 4 mm; in the test with Escherichia coli [10] it was 6 mm; in the test with Aspergillus niger [13], 16 mm; in the test with Candida albicans [15], 16 mm. The zone of inhibition at 200 µg/mL was 18 mm with Bacillus subtilis [4]; 12 mm in the test on Pseudomonas aeruginosa [7]; 18 mm in the test on Escherichia coli [9]; 32 mm in the test on Candida albicans [12]; 12 mm in the test with Staphylococcus aureus [16]; 32 mm in the test with Aspergillus niger [17].
As for `O=C1c2ccccc2C(=O)N1CN1C(=O)N(c2ccccc2)C(=O)C1(c1ccccc1)c1ccccc1`, the zone of inhibition at 100 µg/mL came out at 6 mm with Staphylococcus aureus [1]; 10 mm in the test with Bacillus subtilis [3]; 8 mm in the test with Pseudomonas aeruginosa [6]; 12 mm in the test with Escherichia coli [11]; 16 mm in the test on Candida albicans [14]; 15 mm with Aspergillus niger [18]. Besides, the zone of inhibition at 50 µg/mL came to 4 mm in the test with Staphylococcus aureus [2]; 4 mm with Bacillus subtilis [5]; 5 mm in the test on Pseudomonas aeruginosa [8]; 5 mm with Escherichia coli [10]; 12 mm with Aspergillus niger [13]; 15 mm in the test with Candida albicans [15]. Moreover, the zone of inhibition at 200 µg/mL in the test on Bacillus subtilis [4] was found to be 14 mm; with Pseudomonas aeruginosa [7], 10 mm; with Escherichia coli [9], 20 mm; in the test with Candida albicans [12], 20 mm; with Staphylococcus aureus [16] it was 9 mm; in the test with Aspergillus niger [17], 16 mm.
Take `O=C1N(c2ccccc2)C(=O)C(c2ccccc2)(c2ccccc2)N1CNc1nc2ccccc2s1`: the zone of inhibition at 100 µg/mL is 10 mm with Staphylococcus aureus [1]; 10 mm in the test on Bacillus subtilis [3]; 12 mm in the test on Pseudomonas aeruginosa [6]; 15 mm in the test with Escherichia coli [11]; 15 mm in the test with Candida albicans [14]; 16 mm in the test with Aspergillus niger [18]. Further, the zone of inhibition at 50 µg/mL in the test on Staphylococcus aureus [2] was 5 mm; in the test on Bacillus subtilis [5] it was 7 mm; with Pseudomonas aeruginosa [8], 7 mm; in the test with Escherichia coli [10], 6 mm; with Aspergillus niger [13], 16 mm; with Candida albicans [15] it was 13 mm. In addition, the zone of inhibition at 200 µg/mL with Bacillus subtilis [4] came out at 18 mm; with Pseudomonas aeruginosa [7], 20 mm; with Escherichia coli [9], 17 mm; in the test on Candida albicans [12], 20 mm; with Staphylococcus aureus [16] it was 17 mm; in the test on Aspergillus niger [17], 20 mm.
`CCN(CC)CN1C(=O)NC(c2ccccc2)(c2ccccc2)C1=O`: the zone of inhibition at 100 µg/mL in the test with Staphylococcus aureus [1] was determined as 10 mm; in the test on Bacillus subtilis [3], 9 mm; with Pseudomonas aeruginosa [6] it was 9 mm; in the test with Escherichia coli [11], 13 mm; with Candida albicans [14], 10 mm; with Aspergillus niger [18] it was 10 mm. For the same compound, the zone of inhibition at 50 µg/mL with Staphylococcus aureus [2] turned out to be 5 mm; in the test on Bacillus subtilis [5], 3 mm; with Pseudomonas aeruginosa [8], 5 mm; with Escherichia coli [10] it was 3 mm; in the test on Aspergillus niger [13] it was 8 mm; in the test with Candida albicans [15], 9 mm. In addition, the zone of inhibition at 200 µg/mL with Bacillus subtilis [4] amounted to 15 mm; in the test with Pseudomonas aeruginosa [7] it was 14 mm; in the test with Escherichia coli [9] it was 18 mm; with Candida albicans [12] it was 11 mm; in the test with Staphylococcus aureus [16] it was 14 mm; in the test with Aspergillus niger [17], 12 mm.
On to `CN(C)CN1C(=O)NC(c2ccccc2)(c2ccccc2)C1=O`, for which the zone of inhibition at 100 µg/mL was determined as 9 mm with Staphylococcus aureus [1]; 10 mm in the test with Bacillus subtilis [3]; 10 mm in the test with Pseudomonas aeruginosa [6]; 13 mm in the test with Escherichia coli [11]; 18 mm in the test on Candida albicans [14]; 18 mm in the test on Aspergillus niger [18]. The zone of inhibition at 50 µg/mL in the test with Staphylococcus aureus [2] is 4 mm; in the test with Bacillus subtilis [5], 5 mm; in the test on Pseudomonas aeruginosa [8], 6 mm; in the test with Escherichia coli [10], 5 mm; with Aspergillus niger [13], 16 mm; in the test on Candida albicans [15] it was 16 mm. The zone of inhibition at 200 µg/mL was found to be 22 mm in the test on Bacillus subtilis [4]; 17 mm with Pseudomonas aeruginosa [7]; 22 mm in the test with Escherichia coli [9]; 19 mm with Candida albicans [12]; 12 mm in the test on Staphylococcus aureus [16]; 18 mm in the test with Aspergillus niger [17].
Consider `O=C1N(c2ccccc2)C(=O)C(c2ccccc2)(c2ccccc2)N1CN1CCOCC1`, for which the zone of inhibition at 100 µg/mL amounted to 6 mm with Staphylococcus aureus [1]; 9 mm in the test on Bacillus subtilis [3]; 6 mm with Pseudomonas aeruginosa [6]; 8 mm in the test on Escherichia coli [11]; 12 mm with Candida albicans [14]; 11 mm in the test with Aspergillus niger [18]. The zone of inhibition at 50 µg/mL came to 5 mm in the test with Staphylococcus aureus [2]; 4 mm in the test with Bacillus subtilis [5]; 4 mm in the test with Pseudomonas aeruginosa [8]; 4 mm in the test on Escherichia coli [10]; 10 mm in the test on Aspergillus niger [13]; 10 mm in the test on Candida albicans [15]. Moreover, the zone of inhibition at 200 µg/mL is 11 mm in the test with Bacillus subtilis [4]; 11 mm in the test with Pseudomonas aeruginosa [7]; 15 mm in the test on Escherichia coli [9]; 15 mm with Candida albicans [12]; 9 mm with Staphylococcus aureus [16]; 12 mm with Aspergillus niger [17].
